Experimental data: ChEMBL document CHEMBL1135986, “Corrigendum to Synthesis and anti-angiogenic activity of 6-(1,2,4-thiadiazol-5-yl)-3-amino pyridazine derivatives [Bioorg. Med. Chem. Lett. 12 (2002) 589]” (Bioorg Med Chem Lett, 2002)

Experiments:
Mus musculus = assay: In vivo percentage inhibition of 3LL Lewis Lung tumor mets formation were measured after oral dosing b.i.d. for 28 days to B6D2F1 mice at a dose of 15 mg/kg b.i.d; type: functional; conditions: 672 h
[1] = Ocular toxicity was assessed after oral dosing at 40 mg/Kg b.i.d. for 4 days in male Wistar rats; No; conditions: rat, in vivo, 96 h
[2] = Ocular toxicity was assessed after oral dosing at 40 mg/Kg b.i.d. for 4 days in male Wistar rats; Yes; conditions: rat, in vivo, 96 h
[3] = Ocular toxicity was assessed after oral dosing at 40 mg/Kg b.i.d. for 4 days in male Wistar rats; Very weak; conditions: rat, in vivo, 96 h

Row | Compound | inhibition in vivo at 15 mg/kg (Mus musculus) | Eye toxicity [1] | Eye toxicity [2] | further results
1 | CN(C)c1nsc(-c2ccc(N3CCN(c4cc(C(F)(F)F)cc(C(F)(F)F)c4)CC3)nn2)n1 | 13% | No toxicity |  | 
2 | FC(F)(F)c1cccc(NC2CCN(c3ccc(-c4ncns4)nn3)CC2)c1 | 42% | No toxicity |  | 
3 | FC(F)(F)c1cc(N2CCN(c3ccc(-c4ncns4)nn3)CC2)cc(C(F)(F)F)c1 | 24% | No toxicity |  | 
4 | Cc1nsc(-c2ccc(N3CCN(c4cc(Cl)cc(Cl)c4)CC3)nn2)n1 |  |  | Yes | 
5 | Cc1nsc(-c2nccc(N3CCN(c4cccc(C(F)(F)F)c4)CC3)n2)n1 |  | No toxicity |  | 
6 | Cc1nsc(-c2ccc(N3CCN(c4cccc(Cl)c4)CC3)nn2)n1 |  |  | Yes | 
7 | Nc1nsc(-c2ccc(N3CCN(c4cccc(C(F)(F)F)c4)CC3)nn2)n1 |  | No toxicity |  | 
8 | Cc1nsc(-c2ccc(N3CCN(c4cccc(C(F)(F)F)c4)CC3)cc2)n1 |  | No toxicity |  | 
9 | FC(F)(F)c1cccc(N2CCN(C3CCN(c4ccc(-c5ncns5)nn4)CC3)CC2)c1 | 54% | No toxicity |  | 
10 | Cc1nsc(-c2ccc(N3CCN(c4cccc(C(F)(F)F)c4)CC3)nn2)n1 |  |  | Toxicity | 
11 | FC(F)(F)c1cccc(N2CCN(c3ccc(-c4ncns4)nn3)CC2)c1 |  | No toxicity |  | 
12 | CN(C)c1nsc(-c2ccc(N3CCC(N4CCN(c5cccc(C(F)(F)F)c5)CC4)CC3)nn2)n1 | 25% |  |  | Eye toxicity [3]: Very weak toxicity
13 | CNc1nsc(-c2ccc(N3CCN(c4cccc(C(F)(F)F)c4)CC3)nn2)n1 |  | No toxicity |  | 
14 | Cc1nsc(-c2ccc(N3CCN(c4cccc([N+](=O)[O-])c4)CC3)nn2)n1 |  |  | Yes | 
15 | Cc1nsc(-c2ccc(N3CCN(c4ccccc4C(F)(F)F)CC3)nn2)n1 |  |  | Yes | 
16 | CCc1nsc(-c2ccc(N3CCN(c4cccc(C(F)(F)F)c4)CC3)nn2)n1 |  | No toxicity |  | 
17 | Cc1nsc(-c2ccc(N3CCN(c4cc(C(F)(F)F)cc(C(F)(F)F)c4)CC3)nn2)n1 |  |  | Yes | 
18 | CN(C)c1nsc(-c2ccc(N3CCN(c4cccc(C(F)(F)F)c4)CC3)nn2)n1 | 39% | No toxicity |  | 
19 | Cc1nsc(-c2ccc(N3CCN(c4cccc(C(F)(F)F)c4)CC3)nc2)n1 |  | No toxicity |  | 
